According to ChEMBL document CHEMBL1127641, “Applications of combinatorial technologies to drug discovery. 1. Background and peptide combinatorial libraries” (J Med Chem, 1994):

Target: Beta-secretase (BACE) (Homo sapiens, UniProt Q9Y5Z0+P56817)
Assay: Inhibitory activity against aspartyl protease
Type: protein assay

IC50: 1.4 µM
SMILES: CC[C@H](C)[C@H](NC(=O)[C@H](Cc1ccccc1)NC(C)=O)C(=O)NC(CC(C)C)C(O)CC(=O)NC(CC(C)C)C(N)=O (stereo in doubt)
